Measured values reported in US20160235708A1, “TOPICAL PIGMENTORY COMPOSITION” (priority 2013, published 2016).

What was measured:
[1] = tested on: normal skin surrounding the vitiligo lesion; assay: Topical psoralen / PUVA therapy of vitiligo lesions: skin reaction around the lesion; type: in vivo
Source text: FIG. 1 A depicts hyper pigmentation surrounding vitiligo lesion following topical Psoralen therapy

[2] = tested on: vitiligo; conditions: monotherapy without ultra violet exposure; personal observation of N Ostovari; cited from earlier work

Pigmentory change surrounding the vitiligo lesion (FIG. 1A) ([1]; following topical use)	Structure (SMILES)	Skin reaction surrounding the vitiligo lesion (FIG. 1B) ([1]; two applications of 1.0% solution at alternate days, topical PUVA therapy)	Repigmenting potential [2]
hyperpigmentation	COc1c2occc2cc2ccc(=O)oc12 [8 methoxypsoralen, 9-methoxy-7H-furo[3,2-g][1]-benzopyran-7-one]	Erythematous photo toxic reaction	
	C=CC[C@@H]1/C=C(\C)C[C@H](C)C[C@H](OC)[C@H]2O[C@@](O)(C(=O)C(=O)N3CCCC[C@H]3C(=O)O[C@H](/C(C)=C/[C@@H]3CC[C@@H](O)[C@H](OC)C3)[C@H](C)[C@@H](O)CC1=O)[C@H](C)C[C@@H]2OC [tacrolimus]		little or no repigmenting potential
